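Dose response: 5 concentrations. Exposure: 48 h. Format: 96-well plates. Endpoint: linear interpolation; highest concentration if not reached. TGI marks complete inhibition of growth.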
Experiments:
Test in all cases: growth of human tumour cells (NCI), 48 h
786-0 renal = tested on: 786-0 renal
A549 NSCLC = tested on: A549 NSCLC
ACHN renal = tested on: ACHN renal
CCRF-CEM leukemia = tested on: CCRF-CEM leukemia
COLO 205 colon = tested on: COLO 205 colon
DLD-1 colon = tested on: DLD-1 colon
DMS 114 small cell lung = tested on: DMS 114 small cell lung
DMS 273 small cell lung = tested on: DMS 273 small cell lung
EKVX NSCLC = tested on: EKVX NSCLC
HCC-2998 colon = tested on: HCC-2998 colon
HCT-116 colon = tested on: HCT-116 colon
HCT-15 colon = tested on: HCT-15 colon
HL-60(TB) leukemia = tested on: HL-60(TB) leukemia
HOP-62 NSCLC = tested on: HOP-62 NSCLC
HOP-92 NSCLC = tested on: HOP-92 NSCLC
HT29 colon = tested on: HT29 colon
IGROV1 ovarian = tested on: IGROV1 ovarian
K-562 leukemia = tested on: K-562 leukemia
KM12 colon = tested on: KM12 colon
KM20L2 colon = tested on: KM20L2 colon
LOX IMVI melanoma = tested on: LOX IMVI melanoma
LXFL 529 NSCLC = tested on: LXFL 529 NSCLC
M14 melanoma = tested on: M14 melanoma
M19-MEL melanoma = tested on: M19-MEL melanoma
MALME-3M melanoma = tested on: MALME-3M melanoma
MOLT-4 leukemia = tested on: MOLT-4 leukemia
NCI-H23 lung = tested on: NCI-H23 lung
NCI-H460 lung = tested on: NCI-H460 lung
NCI-H522 lung = tested on: NCI-H522 lung
OVCAR-3 ovarian = tested on: OVCAR-3 ovarian
OVCAR-4 ovarian = tested on: OVCAR-4 ovarian
OVCAR-5 ovarian = tested on: OVCAR-5 ovarian
OVCAR-8 ovarian = tested on: OVCAR-8 ovarian
RPMI-8226 leukemia = tested on: RPMI-8226 leukemia
RXF 393 renal = tested on: RXF 393 renal
SF-268 CNS = tested on: SF-268 CNS
SF-295 CNS = tested on: SF-295 CNS
SF-539 CNS = tested on: SF-539 CNS
SK-MEL-2 melanoma = tested on: SK-MEL-2 melanoma
SK-MEL-28 melanoma = tested on: SK-MEL-28 melanoma
SK-MEL-5 melanoma = tested on: SK-MEL-5 melanoma
SN12C renal = tested on: SN12C renal
SNB-19 CNS = tested on: SNB-19 CNS
SNB-78 CNS = tested on: SNB-78 CNS
SW-620 colon = tested on: SW-620 colon
TK-10 renal = tested on: TK-10 renal
U251 CNS = tested on: U251 CNS
UACC-257 melanoma = tested on: UACC-257 melanoma
UACC-62 melanoma = tested on: UACC-62 melanoma
UO-31 renal = tested on: UO-31 renal
XF 498 CNS = tested on: XF 498 CNS

COC(=O)C1=C(C(=O)OC)C2(C)Nc3ccccc3C2=C(c2ccccc2)C1 (stereo unspecified)
TGI (786-0 renal): 81.4 µM | TGI (A549 NSCLC): 46.7 µM | TGI (ACHN renal): 62.3 µM | TGI (CCRF-CEM leukemia): 47.4 µM | TGI (COLO 205 colon): 34 µM | TGI (DLD-1 colon): > 100 µM | TGI (DMS 114 small cell lung): 44.4 µM | TGI (DMS 273 small cell lung): 43.7 µM | TGI (EKVX NSCLC): 70.5 µM | TGI (HCC-2998 colon): 64.2 µM | TGI (HCT-116 colon): 44 µM | TGI (HCT-15 colon): 51.8 µM | TGI (HL-60(TB) leukemia): 41.5 µM | TGI (HOP-62 NSCLC): 50.1 µM | TGI (HOP-92 NSCLC): 38.9 µM | TGI (HT29 colon): 70.6 µM | TGI (IGROV1 ovarian): 52.9 µM | TGI (K-562 leukemia): 47.8 µM | TGI (KM12 colon): 30.3 µM | TGI (KM20L2 colon): 74.3 µM | TGI (LOX IMVI melanoma): 55.7 µM | TGI (LXFL 529 NSCLC): 32.1 µM | TGI (M14 melanoma): 31.8 µM | TGI (M19-MEL melanoma): 46 µM | TGI (MALME-3M melanoma): 37.1 µM | TGI (MOLT-4 leukemia): 29.6 µM | TGI (NCI-H23 lung): 45.7 µM | TGI (NCI-H460 lung): 42.9 µM | TGI (NCI-H522 lung): 35.9 µM | TGI (OVCAR-3 ovarian): 52.2 µM | TGI (OVCAR-4 ovarian): 50.1 µM | TGI (OVCAR-5 ovarian): 62.7 µM | TGI (OVCAR-8 ovarian): 61.7 µM | TGI (RPMI-8226 leukemia): 29.6 µM | TGI (RXF 393 renal): 54.3 µM | TGI (SF-268 CNS): 66.5 µM | TGI (SF-295 CNS): 58 µM | TGI (SF-539 CNS): 37.5 µM | TGI (SK-MEL-2 melanoma): 39 µM | TGI (SK-MEL-28 melanoma): 40.7 µM | TGI (SK-MEL-5 melanoma): 29.9 µM | TGI (SN12C renal): 57.7 µM | TGI (SNB-19 CNS): 75.5 µM | TGI (SNB-78 CNS): 46.9 µM | TGI (SW-620 colon): 69.6 µM | TGI (TK-10 renal): 69.9 µM | TGI (U251 CNS): 41.6 µM | TGI (UACC-257 melanoma): 39.7 µM | TGI (UACC-62 melanoma): 38.5 µM | TGI (UO-31 renal): 38.2 µM | TGI (XF 498 CNS): 27 µM

Reference: PubChem BioAssay (NCI)
